The values below come from patent US7115662B2, “Certain 5-alkyl-2-arylaminophenylacetic acids and derivatives” (Novartis AG, priority 1997, dated 2006).

The subject of one data set is gross gastric ulceration. The experiment in a line: gastric tolerability assay. The class given is in vivo. To be noted: rat; 100 mg/kg p.o.; four hours after administration. The protocol: The gastric tolerability assay is used to assess gross ulceration in the rat, measured four hours after oral administration of the test compound. The test is carried out as follows: Rats are fasted overnight, administered compound in fortified cornstarch vehicle by gavage, and sacrificed by carbon dioxide inhalation four hours later. The stomachs are removed and gross gastric lesions counted and measured to give the total lesion length per rat. Each experiment contains the following groups (5–6 rats per group): vehicle control, test compounds, and diclofenac as a reference compound. Data are calculated as the mean number of ulcers in a group, the mean length of ulcers (mm) in the group and as the ulcer index (UI). UI=mean length of ulcers in a group×ulcer incidence where ulcer incidence is the fraction of animals in the group with lesions (100% incidence is 1).
With `CCc1ccc(Nc2c(F)c(F)cc(F)c2F)c(CC(=O)OCC(=O)O)c1` [6(a), carboxymethyl 5-ethyl-2-(2′,3′,5′,6′-tetrafluoroanilino)phenylacetate], the gastric ulcerogenic effect result is on record as “essentially free of any gastric ulcerogenic effect”.

The subject of a further data set is intestinal permeability. Kind of data set: intestinal tolerability (51Cr-EDTA intestinal permeability). It counts as in vivo. The following applies: rat; 30 mg/kg p.o.; 51Cr-EDTA urinary excretion over 24 h. The protocol: Intestinal tolerability can be determined by measuring the effect on intestinal permeability. Lack of increase in permeability is indicative of intestinal tolerability. The method used is a modification of a procedure by Davies, et al., Pharm. Res. 1994; 11:1652–1656 and is based on the fact that excretion of orally administered ^51Cr-EDTA, a marker of small intestinal permeability, is increased by NSAIDs. Groups of rats (≧12/group) are administered a single, oral dose of test compound or vehicle by gastric intubation. Immediately following compound dose, each rat is administered ^51Cr-EDTA (5 μCi/rat) by gastric intubation. The rats are placed in individual metabolic cages and given food and water ad libitum. Urine is collected over a 24 hour period. Twenty-four hours after administration of ^51Cr-EDTA the rats are sacrificed. To quantify compound effect on intestinal permeability, the excreted ^51Cr-EDTA measured in the urine of compound treated rats is compared to the excreted ^51Cr-EDTA measured in the urine of vehicle treated rats. Relative permeability is determined by calculating the activity present in each urine sample as a percent of the administered dose after correcting for background radiation.
Consider `CCc1ccc(Nc2c(F)c(F)cc(F)c2F)c(CC(=O)OCC(=O)O)c1` [6(a), carboxymethyl 5-ethyl-2-(2′,3′,5′,6′-tetrafluoroanilino)phenylacetate], for which the “effect on intestinal permeability” value is “no effect or only a minimal effect”.

For a further data set, the system named is pain threshold in yeast-inflamed paw. Kind of data set: Randall-Selitto paw pressure assay. It counts as in vivo, rat. The following applies: male Wistar rats; 10 mg/kg orally; 1 h after dosing. The protocol:
The analgesic activity of the compounds of the invention is determined using the well-known Randall-Selitto assay.
The Randall-Selitto paw pressure assay measures antinociception (analgesic activity) in inflamed tissue by comparing the pressure threshold in the inflamed paw of the rat after oral administration of test drug with that in the inflamed paw of rats administered corn starch vehicle orally.
Groups of 10 male Wistar rats weighing 40–50 gms are fasted overnight prior to testing. Hyperalgesia is induced by the injection of 0.1 ml of a 20% suspension of Brewer's yeast with a 26 gauge needle into the subplantar region of the right hindpaw. The left paw is not injected and is used as the control paw for determination of hyperalgesia. Vehicle (Fortified corn starch suspension 3%) at 10 ml/kg, reference compound (diclofenac is run in every experiment at the same dose as test compounds) and test compounds at different doses suspended in vehicle at 10 ml/kg are administered orally 2 hours after the yeast injection. The threshold for paw withdrawal is quantified with a Basile Analgesy-meter 1 hour after oral administration of test compounds. The nociceptive threshold is defined as the force in grams at which the rat withdraws its foot or vocalizes. Either vocalization or foot withdrawal is recorded as a response.
The data are analyzed by comparing the mean pain threshold of the corn starch vehicle-treated group for the inflamed and non-inflamed paws to that of individual drug-treated rats. Individual rats in the drug-treated groups and positive control (diclofenac) group are called reactors if the individual pain threshold in each paw exceeds the control group mean threshold by two standard deviations of that mean. The mean pain thresholds of the inflamed paw in the control group are compared to the individual pain thresholds of the inflamed paw in the test drug group. The non-inflamed control mean pressure threshold is compared to the non-inflamed individual pressure thresholds in the test groups. Results are expressed as number of reactors in each test group (n=10) for inflamed and non-inflamed paws. Percentages are calculated by dividing number of reactors by total number of rats used for a compound.
For `CCc1ccc(Nc2c(F)c(F)cc(F)c2F)c(CC(=O)OCC(=O)O)c1` [6(a), carboxymethyl 5-ethyl-2-(2′,3′,5′,6′-tetrafluoroanilino)phenylacetate], the “pain threshold in the inflamed paw” value was “increase the pain threshold” and the “pain threshold in the non-inflamed paw” value is “no threshold elevation”.

System in the next data set: not given
Test: not given
Conditions: not given
A word on the melting point: it is the temperature of the solid-liquid transition. The compound `CCc1ccc(Nc2c(F)cc(F)cc2Cl)c(CC(=O)O)c1` [Example 2(e), 5-ethyl-2-(2′-chloro-4′,6′-difluoroanilino)phenylacetic acid] registered a melting point of 160 to 162 °C. On the same count and under the same terms, under `CCc1ccc(Nc2c(F)cc(Cl)cc2Cl)c(CC(=O)O)c1` [Example 2(f), 5-ethyl-2-(2′,4′-dichloro-6′-fluoroanilino)phenylacetic acid] stands 169 to 171 °C; under `CCc1ccc(Nc2c(F)c(F)cc(F)c2F)c(CC(=O)OCC(=O)O)c1` [6(a), carboxymethyl 5-ethyl-2-(2′,3′,5′,6′-tetrafluoroanilino)phenylacetate], 151 to 153 °C. The same measure, in the same setting: the result for `CCc1ccc(Nc2c(F)cc(Cl)cc2Cl)c(CC(=O)OCC(=O)O)c1` [Example 6(e), carboxymethyl 5-ethyl-2-(2′,4′-dichloro-6′-fluoroanilino)phenylacetate] reads 132 to 134 °C; that for `Cc1ccc(Nc2c(Cl)cccc2Cl)c(CC(=O)O)c1` [Example 1(c), 5-methyl-2-(2′,6′-dichloroanilino)phenylacetic acid], 168 to 170 °C. The same measure, in the same setting: the result for `CCc1ccc(Nc2c(Cl)cccc2Cl)c(CC(=O)O)c1` [Example 3(c), 5-ethyl-2-(2′,6′-dichloroanilino)phenylacetic acid] reads 133 to 136 °C; that for `CCc1ccc(Nc2c(C)cc(Cl)cc2Cl)c(CC(=O)O)c1` [Example 3(b), 5-ethyl-2-(2′,4′-dichloro-6′-methylanilino)phenylacetic acid], 180 to 183 °C. The compound `CCc1ccc(Nc2c(F)cccc2Cl)c(CC(=O)O)c1` [Example 2(a), 5-ethyl-2-(2′-fluoro-6′-chloroanilino)phenylacetic acid] registered a melting point of 147 to 148 °C.

With `CCc1ccc(Nc2c(F)cccc2Cl)c(CC(=O)OCC(=O)O)c1` [Example 6(f), carboxymethyl 5-ethyl-2-(2′-chloro-6′-fluoroanilino)phenylacetate], the melting point fell in the range of 106 to 108 °C. Still for that read-out and setting: the result for `CCc1ccc(Nc2c(C)cc(F)cc2Cl)c(CC(=O)O)c1` [Example 5(c), 5-ethyl-2-(2′-chloro-4′-fluoro-6′-methylanilino)phenylacetic acid] reads 151 to 154 °C; that for `CCc1ccc(Nc2c(Cl)cccc2Cl)c(CC(=O)OCC(=O)O)c1` [Example 6(c), carboxymethyl 5-ethyl-2-(2′,6′-dichloroanilino)phenylacetate], 124 to 126 °C. In turn, `CCc1ccc(Nc2c(C)cc(F)cc2F)c(CC(=O)O)c1` [Example 5(b), 5-ethyl-2-(2′,4′-difluoro-6′-methylanilino)phenylacetic acid] displayed a melting point of 143 to 145 °C. Take `CCOc1c(F)c(F)c(Nc2ccc(CC)cc2CC(=O)O)c(F)c1F` [Example 2(d), 5-ethyl-2-(2′,3′,5′,6′-tetrafluoro-4′-ethoxyanilino)phenylacetic acid]: the melting point fell in the range of 131 to 132 °C.

In the case of `CCc1ccc(Nc2c(C)cccc2Cl)c(CC(=O)O)c1` [Example 2(b), 5-ethyl-2-(2′-chloro-6′-methylanilino)phenylacetic acid], the melting point was in the range of 125 to 126 °C. As to `Cc1ccc(Nc2c(Cl)cccc2Cl)c(CC(=O)OCC(=O)O)c1` [Example 6(h), carboxymethyl 5-methyl-2-(2′,6′-dichloroanilino)phenylacetate], the melting point fell in the range of 125 to 126 °C.

Consider `Cc1ccc(Nc2c(F)c(F)cc(F)c2F)c(CC(=O)O)c1` [Example 1(b), 5-methyl-2-(2′,3′,5′,6′-tetrafluoroanilino)phenylacetic acid], for which the melting point lay within 153 to 156 °C. Still for that read-out and setting: the result for `Cc1ccc(Nc2c(C)cc(F)cc2Cl)c(CC(=O)O)c1` [Example 1(i), 5-methyl-2-(2′-chloro-4′-fluoro-6′-methylanilino)phenylacetic acid] reads 154 to 156 °C; that for `Cc1cc(Cl)c(Nc2ccc(C)cc2CC(=O)O)c(Cl)c1` [Example 1(e), 5-methyl-2-(2′,6′-dichloro-4′-methylanilino)phenylacetic acid], 179 to 182 °C. As for `Cc1ccc(Nc2c(F)cccc2C(F)(F)F)c(CC(=O)O)c1` [Example 9(a), 5-methyl-2-(2′-fluoro-6′-trifluoromethylanilino)phenylacetic acid], the melting point was 155 to 156 °C. For the compound `Cc1ccc(Nc2c(F)cc(Cl)cc2Cl)c(CC(=O)OCC(=O)O)c1` [Example 6(g), carboxymethyl 5-methyl-2-(2′-fluoro-4′,6′-dichloroanilino)phenylacetate], the melting point fell in the range of 148 to 150 °C.

As for `CCc1ccc(Nc2c(F)c(F)cc(F)c2F)c(CC(=O)OC(C)(C)C(=O)O)c1` [Example 8, 1-carboxy-1-methylethyl 5-ethyl-2-(2′,3′,5′,6′-tetrafluoroanilino)phenylacetate], the melting point was in the range of 104 to 108 °C.

As to `Cc1ccc(Nc2c(C)cccc2Cl)c(CC(=O)O)c1` [Example 1(f), 5-methyl-2-(2′-chloro-6′-methylanilino)phenylacetic acid], the melting point lay within 138 to 140 °C. As to `Cc1ccc(Nc2c(F)cc(O)cc2Cl)c(CC(=O)O)c1` [Example 1(j), 5-methyl-2-(2′-chloro-4′-hydroxy-6′-fluoroanilino)phenylacetic acid], the melting point was 180 to 182 °C. For `Cc1ccc(Nc2c(F)cc(Cl)cc2Cl)c(CC(=O)O)c1` [Example 1(h), 5-methyl-2-(2′-fluoro-4′,6′-dichloroanilino)phenylacetic acid], the melting point lay in the range of 178 to 180 °C. Same read-out and setting: the result for `Cc1ccc(Nc2c(F)cccc2Cl)c(CC(=O)OCC(=O)O)c1` [Example 6(i), carboxymethyl 5-methyl-2-(2′-chloro-6′-fluoroanilino)phenylacetate] reads 96 to 98 °C; that for `CCc1ccc(Nc2c(C)cc(Cl)cc2Cl)c(CC(=O)OCC(=O)O)c1` [Example 6(b), carboxymethyl 5-ethyl-2-(2′,4′-dichloro-6′-methylanilino)phenylacetate], 123 to 125 °C; that for `CCc1ccc(Nc2c(F)ccc(F)c2F)c(CC(=O)O)c1` [Example 2(c), 5-ethyl-2-(2′,3′,6′-trifluoroanilino)phenylacetic acid], 138 to 140 °C. With `CCc1ccc(Nc2c(F)cc(F)cc2Cl)c(CC(=O)OCC(=O)O)c1` [Example 6(d), carboxymethyl 5-ethyl-2-(2′,4′-difluoro-6′-chloroanilino)phenylacetate], the melting point is 142 to 144 °C.
